The source of these data is patent US8530455B2 (University of Medicine and Dentistry of New Jersey, priority 2009, dated 2013).

For series [1], the system named is human citrated whole blood (CWB). Description: Whole blood clotting time after recalcification (Amelung KC4A Micro, or instrument not named). It is filed as cell-based. The method, then:
Clotting time of whole blood enables the contribution of both the cellular elements (leukocytes, red blood cells, platelets) and plasma (the liquid sustaining the cellular components) to be evaluated. The citrate anticoagulated sample is brought to 37° (body temperature) and calcium ion is added to initiate the coagulation cascade. Many instruments are available to determine the time between calcium addition and the formation of the blood clot (clotting time). The time for this complex phenomenon to occur can be shorter than normal (hypercoagulable), within the normal range, and longer than normal (hypocoagulable state). Some disease states are characterized by hypercoagulable clotting states and include coronary artery disease, some cancer, diabetes, multiple sclerosis, stroke etc. The hypocoagulable states include hemophilia, and patients receiving anticoagulant therapies.
(§1) Human citrated whole blood (CWB) samples were gently inverted several times to ensure homogeneity and stored on ice to prevent protein denaturation. Ten microliters of physiologic saline was added to 490 μl of CWB (control), gently mixed, and incubated at 37° C. for 10 minutes. Coagulation was initiated by transferring 300 μl of blood sample to a cuvette containing 32 μl of 0.1 M CaCl2. After gently mixing the sample and ensuring no air bubble formations in the cuvette, the whole blood clotting times were recorded on an Amelung KC4A Micro Coagulation Analyzer (Sigma Diagnostics, St. Louis, Mo., USA), a device that uses the relative displacement of a magnetic bead due to fibrin formation to determine the clotting time. In addition, the Sonoclot Coagulation Analyzer (Sienco, Wheat Ridge, Colo., USA), a miniviscometer that is sensitive to fibrin polymer formation and fibrinolysis, was also employed to determine the whole blood clotting time. Both clinical instruments are FDA approved and used to evaluate blood coagulation processes at 37° C.
(§2) Clotting time values obtained within each study were evaluated by repeated measures analysis of variance (ANOVA) followed by Tukey-Kramer multiple comparison tests. All statistical analyses were assessed using two-sided paired Student t tests and significance was defined as p<0.05.

The test system is the same in series [2]. Description: Whole blood clotting time, Sonoclot Coagulation Analyzer. Type of series: cell-based. The method, then:
as §1, §2
In the previous experiments, the whole blood clotting times were measured using the Amelung KC4A Micro, an instrument approved by the FDA to measure blood coagulation processes. Another FDA approved instrument used to measure blood coagulation and fibrinolysis is the Sonoclot Coagulation Analyzer.

The test system of series [3] is red blood cells in anticoagulated human blood. Briefly: Erythrocyte Sedimentation Rate (ESR) in vitro. Type of series: cell-based. The conditions noted are these: for ESR value: n=13. From the text: When anticoagulated blood is allowed to remain undisturbed in a long thin tube, the erythrocytes (red blood cells) begin to settle. The rate these cells settle may be a biomarker of the immune system status of the donor's blood. Many chronic diseases and those which create increased morbidity and mortality show increases (larger distance of settling) in ESR than age-matched healthy individuals. The ESR can also monitor the effects of therapeutics or procedures on the patient.
The ESR is the distance red blood cells settle in anticoagulated blood in one hour (mm/hr). These test results are elevated in many diseases that affect the immune system (infections, arthritis, cancer, heart diseases).

The subject of series [4] is citrated whole blood. Briefly: Glucose-accelerated clotting time (Diagnostica Stago ST4 and Sonoclot). It is filed as cell-based, human. Conditions: for Glucose-accelerated clotting time: after 24 hours. How it is done:
Citrated whole blood samples were obtained from the University Hospital's clinical laboratory with prior IRB approval. Samples were treated with different concentrations of glucose (6.0 mM, 9.0 mM, and 12.0 mM) to determine if a dose-response relationship existed between the glucose concentration and clotting time. Clotting times were then recorded using a Diagnostica Stago ST4 Coagulation Analyzer. […] The samples were incubated for 10 minutes prior to the addition of glucose (12.0 mM). After 24 hours, clotting times were recorded using a Diagnostica Stago ST4 and Sonoclot Coagulation Analyzer (FIG. 2). Results and Discussion

Series [5] relates to plasma. Briefly: GDL dose response on plasma clotting time. Type of series: biochemical. Conditions: GDL dose response curve in plasma.
For series [6] the following is noted: no refrigeration required; cited from earlier work.

As for `O=C1O[C@H](CO)[C@@H](O)[C@H](O)[C@H]1O` [GDL, glucono-delta-lactone], the “Mean Clotting Times” value is 271.13 ± 24.83 s in series [1] (2 μg GDL per mL CWB, n=8, control 264.38 ± 24.17); 618.31 ± 71.81 s in series [1] (11.8 mg GDL per mL CWB, n=16, control 252.25 ± 25.05); 418.44 ± 80.46 s in series [1] (0.2% TF plus 11.8 mg GDL per mL CWB, n=16); 456.15 ± 47.45 s in series [1] (0.2 Unit LMWH (dalteparin sodium) plus 2 μg GDL per mL CWB, n=8); 572.51 ± 45.94 s in series [1] (0.2 Unit UFH plus 2 μg GDL per mL CWB, n=8); 240.73 ± 29.58 s in series [1] (0.3 Unit LMWH (enoxaparin sodium) plus 2.9 μg GDL per mL CWB, n=4). Besides, the “Mean Clotting Times” value in series [1] (0.3 Unit LMWH (enoxaparin sodium) plus 10 μg GDL per mL CWB, n=4) is 294.50 ± 46.16 s; in series [1] (0.3 Unit LMWH (enoxaparin sodium) plus 23 μg GDL per mL CWB, n=4), 336.28 ± 51.79 s; in series [1] (0.3 Unit LMWH (enoxaparin sodium) plus 184 μg GDL per mL CWB, n=4) it was 381.23 ± 61.83 s; in series [1] (0.3 Unit LMWH (enoxaparin sodium) plus 1.48 mg GDL per mL CWB, n=4) it was 442.45 ± 63.38 s; in series [1] (0.3 Unit LMWH (enoxaparin sodium) plus 11.8 mg GDL per mL CWB, n=4), 542.88 ± 54.17 s; in series [1] (0.3 Unit UFH plus 2.9 μg GDL per mL CWB, n=5) it was 415.10 ± 101.63 s. Also, the “Mean Clotting Times” value in series [1] (0.3 Unit UFH plus 10 μg GDL per mL CWB, n=5) stood at 498.94 ± 81.24 s; in series [1] (0.3 Unit UFH plus 23 μg GDL per mL CWB, n=5) it was 675.34 ± 129.28 s; in series [1] (0.3 Unit UFH plus 184 μg GDL per mL CWB, n=5), 825.96 ± 160.74 s; in series [1] (0.3 Unit UFH plus 1.48 mg GDL per mL CWB, n=5), 926.44 ± 192.03 s; in series [1] (0.3 Unit UFH plus 11.8 mg GDL per mL CWB, n=5), 1197.89 ± 114.32 s; in series [2] (11.8 mg GDL per mL CWB, n=16, control 262.63 ± 49.67), 631.75 ± 74.55 s. Besides, the “Mean Clotting Times” value in series [2] (0.2 Unit LMWH (dalteparin sodium) plus 11.8 mg GDL per mL CWB, n=16) is on record as 844.94 ± 77.99 s; in series [2] (0.2 Unit UFH plus 11.8 mg GDL per mL CWB, n=16) it was 852.00 ± 80.72 s. The mean clotting time turned out to be 246.55±28.32 in series [1] (2.90 μg GDL/mL CWB, n=4, saline 254.08±27.37); 307.90±16.82 in series [1] (23.00 μg GDL/mL CWB, n=4); 387.33±52.36 in series [1] (184.00 μg GDL/mL CWB, n=4); 444.55±92.01 in series [1] (1.48 mg GDL/mL CWB, n=4); 687.37±51.23 in series [1] (11.80 mg GDL/mL CWB, n=4); 270 s in series [1] (CWB + GDL, n=9 (GDL 3 mg/ml)). The “mean clotting time” value is 134 s in series [1] (CWB + TF + GDL, n=9 (GDL 3 mg/ml)); 342 ± 32 s in series [1] (GDL 4 mg/ml, after four days in the refrigerator (4°), control 177±17); 432 ± 16 s in series [1] (GDL 4 mg/ml, day 1, n=10, control 250±16). For the same molecule, in series [1] (GDL 0.016 mM-66.24 mM), the “change of whole blood clotting time over GDL concentration range” value is “increased about three fold”. The “clotting time versus control” value in series [1] (GDL 3 mg/ml incubated in blood with bacterial endotoxin) is “significantly (p≦0.05) increase the clotting time”. The clotting time in series [1] (Study III: 60 ng/ml histamine, 3 mg/ml GDL, n=8) amounted to 305 ± 30 s; in series [1] (Study III: 60 ng/ml histamine, 4 mg/ml GDL, n=8), 325 ± 53 s; in series [1] (Study IV: 1 μg/ml histamine added first, 1 mg/ml GDL, n=8) it was 297 ± 113 s; in series [1] (Study IV: 1 μg/ml histamine added first, 2 mg/ml GDL, n=8) it was 304 ± 121 s; in series [1] (blood containing protease 35 μg/ml plus GDL 4 mg/ml), 154 ± 55 s; in series [1] (blood exposed to tissue factor plus GDL 3 mg/ml, TF alone 101), 134 s. In addition, the clotting time in series [1] (trypsin-treated blood plus GDL 6 mg/ml, n=4) amounted to 83 ± 19 s. In addition, in series [1] (concentrations greater than 184 μg GDL per mL of blood, n=4, p<0.05), the anticoagulant effect result is recorded as “potent anticoagulant”. Besides, the ESR value was 18±14 mm/hr in series [3] (0.1 mg/ml GDL, control 20±13); 16±12 mm/hr in series [3] (3.0 mg/ml GDL); 15±12 mm/hr in series [3] (6.0 mg/ml GDL). Moreover, the ESR is on record as 9.6 mm in series [3] (GDL 1 mg/ml alone) and 30.1 mm in series [3] (MC + GDL (MC 0.1 mg/ml, GDL 1 mg/ml)). Besides, in series [3] (MC 0.1% plus GDL 1 mg/ml, N=8, p<0.05), the “Methylcellulose (MC)-accelerated ESR” value was found to be 34.6 mm. Also, the “effect of GDL on clotting time in the presence of excess glucose (FIG. 2)” value in series [4] (GDL 3 mg/ml and 4 mg/ml, glucose 12.0 mM) is on record as “prolonging clotting time even in the presence of excess glucose”. Besides, the Glucose-accelerated clotting time in series [4] (glucose (12.0 mM) plus GDL 3 mg/ml) was 243 ± 70 s; in series [4] (glucose (12.0 mM) plus GDL 4 mg/ml) it was 334 ± 107 s. Moreover, the “anticoagulant effect in plasma” value in series [5] is “a similar anticoagulant effect was observed”. For the same molecule, the “stability at room temperature” value in series [6] was “not susceptible to degradation at room temperatures”.

`NCCc1c[nH]cn1` [histamine, reference compound]: the clotting time in series [1] (Study III: 60 ng/ml histamine, 0 mg/ml GDL, n=8, control 264±38) was found to be 220 ± 39 s; in series [1] (Study IV: 1 μg/ml histamine, 0 mg/ml GDL, n=8, control 306±108), 253 ± 136 s; in series [1] (histamine 20 ng/ml, n=8, control 264±80), 257 ± 105 s; in series [1] (histamine 40 ng/ml, n=8), 240 ± 42 s; in series [1] (histamine 60 ng/ml, n=8), 235 ± 73 s; in series [1] (histamine 20 μg/ml, 10 minutes at 37°, n=9, control 300±72) it was 252 ± 61 s. Further, the clotting time in series [1] (histamine 40 μg/ml, 10 minutes at 37°, n=9) turned out to be 230 ± 49 s; in series [1] (histamine 60 μg/ml, 10 minutes at 37°, n=9), 205 ± 71 s.

“Protamine sulfate [PS, reference compound]”: the “Mean Clotting Times” value in series [1] (2 μg PS per mL CWB, n=8) is recorded as 294.26 ± 22.92 s; in series [1] (0.2 Unit LMWH (dalteparin sodium) plus 2 μg PS per mL CWB, n=8), 433.96 ± 56.96 s; in series [1] (0.2 Unit UFH plus 2 μg PS per mL CWB, n=8), 464.71 ± 42.83 s.

On to trypsin [reference compound], for which, in series [1] (trypsin-treated blood, control 356±47), the clotting time is 49 ± 14 s.

For the molecule “unfractionated heparin sodium [UFH, reference compound]”, the “Mean Clotting Times” value in series [1] (0.2 Unit UFH per mL CWB, n=8) amounted to 648.54 ± 55.31 s; in series [1] (0.3 Unit UFH per mL CWB, n=5, control 246.56 ± 36.06), 507.52 ± 85.26 s; in series [2] (0.2 Unit UFH per mL CWB, n=16), 677.25 ± 55.33 s.

B1: TF: Tissue Factor, the initiator of the extrinsic clotting cascade (protein, UniProt P13726 33-295, looked up)
Tissue factor: SGTTNTVAAYNLTWKSTNFKTILEWEPKPVNQVYTVQISTKSGDWKSKCFYTTDTECDLTDEIVKDVKQTYLARVFSYPAGNVESTGSAGEPLYENSPEFTPYLETNLGQPTIQSFEQVGTKVNVTVEDERTLVRRNNTFLSLRDVFGKDLIYTLYYWKSSSSGKKTAKTNTNEFLIDVDKGENYCFSVQAVIPSRTVNRKSTDSPVECMGQEKGEFREIFYIIGAVVFVVIILVIILAISLHKCRKAGVGQSWKENSPLNVS
On to B1, for which the “Mean Clotting Times” value in series [1] (0.2% TF, n=16) came to 100.13 ± 23.10 s.
